According to publication PMC11645267, “Novel pharmacologic inhibition of lysine-specific demethylase 1 as a potential therapeutic for glioblastoma” (Cancer Gene Therapy, 2024):

Columns and labels:
[1] = tested on: GSC1228; assay: Cell proliferation assay (CellTiter-Glo 3D); format: cell-based; details: GSC1228, 96 h; read-out: Growth inhibitory IC50 (GI50)
Experimental: (§1) Supplementary materials and methods […]
(§2) Cell lines and culture conditions […]
(§3) 2013 #1009}{Katsushima, 2016 #1156}. GSC cells were cultured in Neurobasal Medium (Life Technologies, Carlsbad, CA, USA) containing N2 and B27 supplements (Life Technologies) along with human recombinant basic fibroblast growth factor and epidermal growth factor (20 ng/ml each; R&D Systems, Minneapolis, MN, USA). Cells were cultured at 37°C in a humidified incubator with 5% CO2.
(§4) For the cell proliferation assay, cells at a density of 1 × 10^5 cells per well were seeded before treatment with LSD1 inhibitors. Cell proliferation was measured after 4 days using a Cell Counting Kit 8 (Dojindo, Kumamoto, Japan) according to the manufacturer ’s […]
(§5) instructions. For GSC cells, the CellTiter-Glo 3D Viability Assay (Promega, Madison, WI, USA) was used to measure the living cells. […]

[2] = tested on: GSC222; assay: Cell proliferation assay (CellTiter-Glo 3D); format: cell-based; details: GSC222, 96 h; read-out: Growth inhibitory IC50 (GI50)
Experimental: as §1, §2, §3, §4, §5

[3] = tested on: GSC316; assay: Cell proliferation assay (CellTiter-Glo 3D); format: cell-based; details: GSC316, 96 h; read-out: Growth inhibitory IC50 (GI50)
Experimental: as §1, §2, §3, §4, §5

[4] = tested on: GSC cells; assay: RNA-seq analysis of enhancer/super-enhancer related genes; format: cell-based, human; details: 5 μM, 96 h, relative to DMSO
Experimental: GSC cells treated with either DMSO (n = 4) or S2172 (5 μM, n = 4) for 96 h and total RNA was isolated with RNeasy mini kit (Qiagen). The RNA purity was determined using Agilent Tape Station (Agilent Technologies). Illumina TruSeq RNA sample preparation was conducted and the samples were run on an Illumina Hiseq XTen (Illumina). RNA-seq was aligned using HISAT2 under default setting to Homo Sapience hg38 [35]. TPM were generated using StringTie and differential expression analysis were performed using DESeq2 [37].
RNA-seq analysis was conducted to examine gene expression changes associated with super-enhancers/enhancers. Among the genes with de novo H3K4me2 modification, the average log2 fold changes (S2172 treatment relative to DMSO treatment) were −0.12 ± 0.03 for super-enhancer-related genes and −0.01 ± 0.01 for typical enhancer-related genes (P = 0.0004) (Supplementary Fig. S6B). In contrast, among the genes with increased H3K4me2 modification, the average log2 fold changes were −0.04 ± 0.01 for super-enhancer-related genes and −0.07 ± 001 for typical enhancer-related genes (P = 0.028) (Supplementary Fig. S6C).

[5] = target: T1, LSD2 (Homo sapiens, UniProt Q8NB78); assay: Enzyme inhibition assay (in vitro peroxidase assay) against LSD2
T1 sequence (Q8NB78 1-822): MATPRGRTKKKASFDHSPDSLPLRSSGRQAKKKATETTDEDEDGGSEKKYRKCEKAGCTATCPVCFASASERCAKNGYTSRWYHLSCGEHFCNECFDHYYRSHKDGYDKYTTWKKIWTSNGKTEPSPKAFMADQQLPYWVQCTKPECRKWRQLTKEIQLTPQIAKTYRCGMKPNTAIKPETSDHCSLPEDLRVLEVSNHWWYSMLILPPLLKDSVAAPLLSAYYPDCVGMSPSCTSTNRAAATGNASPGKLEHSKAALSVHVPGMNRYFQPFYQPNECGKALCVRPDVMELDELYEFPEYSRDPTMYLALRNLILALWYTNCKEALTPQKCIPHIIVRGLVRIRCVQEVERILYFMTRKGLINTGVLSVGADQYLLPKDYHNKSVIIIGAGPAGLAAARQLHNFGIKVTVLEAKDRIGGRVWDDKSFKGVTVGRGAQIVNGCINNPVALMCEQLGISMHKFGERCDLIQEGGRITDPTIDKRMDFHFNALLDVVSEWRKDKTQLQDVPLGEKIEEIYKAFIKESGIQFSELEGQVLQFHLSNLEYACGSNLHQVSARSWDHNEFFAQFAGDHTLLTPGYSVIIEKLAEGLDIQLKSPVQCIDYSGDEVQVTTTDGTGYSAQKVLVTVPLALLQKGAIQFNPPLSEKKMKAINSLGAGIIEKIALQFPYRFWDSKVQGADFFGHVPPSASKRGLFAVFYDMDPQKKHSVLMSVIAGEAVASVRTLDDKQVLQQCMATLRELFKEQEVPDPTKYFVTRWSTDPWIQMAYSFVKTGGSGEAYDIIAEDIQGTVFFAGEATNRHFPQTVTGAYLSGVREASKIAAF
Experimental: Enzyme inhibition assays against LSD1, LSD2, MAO-A, and MAO-B were performed as previously described [25]. Technical replicates, n = 3.

NC1CCC(NC2CC2c2cc(F)cc(F)c2OCc2ccccc2)CC1 (stereo not drawn) [S2172]
IC50 [1]: 12.5 µM
IC50 [2]: 17 µM
IC50 [3]: 12 µM
average log2 fold change of expression, super-enhancer-related genes with de novo H3K4me2 [4]: −0.12 ± 0.03
average log2 fold change of expression, super-enhancer-related genes with increased H3K4me2 [4]: −0.04 ± 0.01
average log2 fold change of expression, typical enhancer-related genes with de novo H3K4me2 [4]: −0.01 ± 0.01
average log2 fold change of expression, typical enhancer-related genes with increased H3K4me2 [4]: −0.07 ± 001
Ki [5]: > 250 µM
Inhibition of LSD2 (in words) ([5]; in vitro peroxidase assay): not inhibited
